In patent publication US7691858B2, “Kinase inhibitors and methods of use thereof” (TargeGen, Inc., priority 2006, dated 2010):

Key:
four isoforms of PI3K = assay: PI3K isoform profiles; assay type: biochemical
Experimental: Identification of PI3K isoform-selective inhibitors.
Kinase assays: For PI3K assays, 40 μL reaction buffer (20 mM Tris, 4 mM MgCl2, 10 mM NaCl, pH 7.4) containing 50 μM D-myo-phosphatidylinositol 4,5-bisphosphate substrate (Echelon Biosciences, Salt Lake City, Utah) and the desired PI3K isoform (Upstate USA, Charlottesville, Va.) were aliquoted to 96 well plates; kinase concentrations were 250-500 ng/well, such that linear kinetics were achieved over 90 min. The compound to be tested was then added as 2.5 μL of a DMSO stock to final concentration range of 100 μM. to 1 nM. Reactions were initiated by addition of 10 μL of ATP to a final concentration of 3 μM, and after 90 min 50 μL of Kinase-Glo reagent (Promega, Madison, Wis.) added to quantify residual ATP levels; luminosity was measured using an Ultra 384 instrument (Tecan, Durham, N.C.). Control reactions omitting either test compound or substrate were also performed. IC50 values were derived from experimental data by non-linear curve fitting (Prism Version 4; GraphPad Software, San Diego, Calif.).

PI3Kγ (p120γ) = molecular target: T1, PI3Kγ (p120γ) (Homo sapiens, UniProt P48736); assay: PI3K luminescence kinase assay (Kinase-Glo), IC50; assay type: biochemical; conditions: Table 1, mean of triplicate values
T1 construct: purchased Upstate Cell Signaling Solutions / Upstate USA
T1 sequence (P48736 whole entry): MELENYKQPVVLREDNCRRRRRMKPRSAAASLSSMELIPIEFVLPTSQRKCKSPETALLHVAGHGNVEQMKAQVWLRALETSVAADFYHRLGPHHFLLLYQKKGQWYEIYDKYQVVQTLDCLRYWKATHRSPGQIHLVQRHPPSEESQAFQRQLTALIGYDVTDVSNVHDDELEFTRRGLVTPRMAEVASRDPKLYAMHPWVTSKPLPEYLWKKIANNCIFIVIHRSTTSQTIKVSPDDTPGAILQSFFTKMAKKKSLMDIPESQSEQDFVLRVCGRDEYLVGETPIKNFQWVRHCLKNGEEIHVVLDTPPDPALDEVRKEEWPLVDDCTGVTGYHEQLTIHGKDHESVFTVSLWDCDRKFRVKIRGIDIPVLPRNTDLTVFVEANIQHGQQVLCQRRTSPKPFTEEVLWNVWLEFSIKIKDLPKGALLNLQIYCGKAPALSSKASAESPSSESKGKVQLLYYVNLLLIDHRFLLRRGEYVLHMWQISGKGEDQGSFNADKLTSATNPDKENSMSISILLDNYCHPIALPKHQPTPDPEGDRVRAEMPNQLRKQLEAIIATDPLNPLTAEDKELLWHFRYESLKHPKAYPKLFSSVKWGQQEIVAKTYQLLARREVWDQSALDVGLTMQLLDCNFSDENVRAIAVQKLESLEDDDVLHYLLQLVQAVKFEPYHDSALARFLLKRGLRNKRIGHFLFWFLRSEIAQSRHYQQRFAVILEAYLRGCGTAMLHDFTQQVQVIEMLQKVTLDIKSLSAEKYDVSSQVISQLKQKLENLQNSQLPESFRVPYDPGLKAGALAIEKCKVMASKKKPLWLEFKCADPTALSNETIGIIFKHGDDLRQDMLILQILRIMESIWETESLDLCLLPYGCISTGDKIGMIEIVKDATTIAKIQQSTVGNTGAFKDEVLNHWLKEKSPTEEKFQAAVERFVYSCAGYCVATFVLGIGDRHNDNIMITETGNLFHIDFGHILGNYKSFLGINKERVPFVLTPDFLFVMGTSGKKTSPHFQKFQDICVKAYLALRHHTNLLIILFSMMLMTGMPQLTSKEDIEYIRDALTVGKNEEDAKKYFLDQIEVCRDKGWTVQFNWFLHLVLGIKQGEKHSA
Experimental: The IC50 value for compounds were determined using a luminescence-based kinase assay with recombinant phosphatidylinositol 3-kinase-p120γ (PI3K) obtained from Upstate Cell Signaling Solutions. […] The reaction was initiated by the addition of 10 μL of ATP to a final assay concentration of 3 μM. After the reaction was to proceed for 90 min, 50 μL of Kinase-Glo reagent (Promega) was added to terminate the reaction. This solution was then allowed to proceed for an additional 10 min to maximize the luminescence reaction. […] Two control reactions were also ran: one containing no compound and the second containing neither compound nor the phosphatidylinositol 4,5-bisphosphate substrate. Data from four wells were then averaged and used to determine IC50 values for the test compounds. IC50 values were derived from experimental data using the non-linear curve fitting capabilities of Prism (Version 4; GraphPad Software).

SMILES: Nc1nc(N)c2nc(-c3cccc4[nH]ccc34)cnc2n1 [Compound III, 6-(1H-Indol-4-yl)pteridine-2,4-diamine]
- PI3K isoform selectivity (four isoforms of PI3K): less selective
- IC50 (PI3Kγ (p120γ)): 85 nM
